Assay results taken from patent publication US9833497B2, “Human originated EGF domain proteins and use of the same” (CHENGDU SOURCEBIO LIMITED-LIABILITY COMPANY, priority 2013, dated 2017).

How the values were obtained:
Type in all cases: cell-based
Proteus vulgaris = assay: MIC against Gram-negative bacteria: Proteus vulgaris; conditions: 5×10^5 CFU/mL; for MIC against P. vulgaris: Proteus vulgaris
Summary of the method: (§1)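 Inocula prepared by growing LB cultures at 37° C to 0.5 McFarland, centrifuging at 4000×g, and resuspending in fresh medium. Final density 5×10^5 CFU/mL per well with two-fold dilutions of purified EGF domain protein; shaking incubation at 37° C.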

Klebsiella pneumonia = assay: MIC against Gram-negative bacteria: Klebsiella pneumonia; conditions: 5×10^5 CFU/mL; for MIC against K. pneumonia: Klebsiella pneumonia
Summary of the method: as §1

Serratia marcescens = assay: MIC against Gram-negative bacteria: Serratia marcescens; conditions: 5×10^5 CFU/mL; for MIC against S. marcescens: Serratia marcescens
Summary of the method: as §1

Proteus mirabilis = assay: MIC against Gram-negative bacteria: Proteus mirabilis; conditions: 5×10^5 CFU/mL; for MIC against P. mirabilis: Proteus mirabilis
Summary of the method: as §1

Citrobacter diversus = assay: MIC against Gram-negative bacteria: Citrobacter diversus; conditions: 5×10^5 CFU/mL; for MIC against C. diversus: Citrobacter diversus
Summary of the method: as §1

Aeromonas hydrophila = assay: MIC against Gram-negative bacteria: Aeromonas hydrophila; conditions: 5×10^5 CFU/mL; for MIC against A. hydrophila: Aeromonas hydrophila
Summary of the method: as §1

E. coli DH5α = assay: Antibacterial activity: MIC and growth curve against E. coli DH5α in 96-well plate; conditions: minimal inhibitory concentration against E. coli DH5α; 96-well plate, 5×10^5 CFU/mL, 37° C., judged after 8 h
Summary of the method: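 Log-phase DH5α (OD600 about 0.5, 37° C, 185 rpm in LB) was pelleted, resuspended in fresh LB and seeded at 5×10^5 CFU/mL with recombinant protein at 50, 25 and 12.5 μg/mL (two-fold series), in triplicate. Plates were shaken at 175 rpm, 37° C, and OD600 was read every 30 min. MIC was the lowest concentration with no growth.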

Moraxella catarrhalis = assay: MIC against Gram-negative bacteria: Moraxella catarrhalis; conditions: 5×10^5 CFU/mL; for MIC against M. catarrhalis: Moraxella catarrhalis
Summary of the method: as §1

Enterobacter cloacae = assay: MIC against Gram-negative bacteria: Enterobacter cloacae; conditions: 5×10^5 CFU/mL; for MIC against E. cloacae: Enterobacter cloacae
Summary of the method: as §1

Pseudomonas aeruginosa = assay: MIC against Gram-negative bacteria: Pseudomonas aeruginosa; conditions: 5×10^5 CFU/mL; for MIC against P. aeruginosa: Pseudomonas aeruginosa
Summary of the method: as §1

E. coli BL21 = assay: MIC against Gram-negative bacteria: E. coli BL21; conditions: 5×10^5 CFU/mL
Summary of the method: as §1

[1] = 10 h cultivation at 37° C., two-fold serial dilution

PRT671 (RVVVCPLPCMNGGQCSSRNQCLCPPDFTGRFCQ; listed as Homo sapiens)
MIC P. vulgaris (Proteus vulgaris; 96-well plate, 37° C., 10 h): 25 µg/mL
MIC K. pneumonia (Klebsiella pneumonia; 96-well plate, 37° C., 10 h): 12.5 µg/mL
MIC S. marcescens (Serratia marcescens; 96-well plate, 37° C., 10 h): 12.5 µg/mL
MIC P. mirabilis (Proteus mirabilis; 96-well plate, 37° C., 10 h): 12.5 µg/mL
MIC C. diversus (Citrobacter diversus; 96-well plate, 37° C., 10 h): 12.5 µg/mL
MIC A. hydrophila (Aeromonas hydrophila; 96-well plate, 37° C., 10 h): 25 µg/mL
MIC (E. coli DH5α): 50 µg/mL
MIC M. catarrhalis (Moraxella catarrhalis; 96-well plate, 37° C., 10 h): 25 µg/mL
MIC E. cloacae (Enterobacter cloacae; 96-well plate, 37° C., 10 h): 12.5 µg/mL
MIC P. aeruginosa (Pseudomonas aeruginosa; 96-well plate, 37° C., 10 h): 12.5 µg/mL
MIC E. coli BL21 (E. coli BL21; 96-well plate, 37° C., 10 h): 12.5 µg/mL

PRT676 (DINECAMPGVCRHGDCLNNPGSYRCVCPPGHSLGPSRTQCI; listed as Homo sapiens)
MIC P. vulgaris (Proteus vulgaris; 96-well plate, 37° C., 10 h): 50 µg/mL
MIC K. pneumonia (Klebsiella pneumonia; 96-well plate, 37° C., 10 h): 50 µg/mL
MIC S. marcescens (Serratia marcescens; 96-well plate, 37° C., 10 h): 12.5 µg/mL
MIC P. mirabilis (Proteus mirabilis; 96-well plate, 37° C., 10 h): 12.5 µg/mL
MIC C. diversus (Citrobacter diversus; 96-well plate, 37° C., 10 h): 50 µg/mL
MIC A. hydrophila (Aeromonas hydrophila; 96-well plate, 37° C., 10 h): 12.5 µg/mL
MIC (E. coli DH5α): 25 µg/mL
MIC M. catarrhalis (Moraxella catarrhalis; 96-well plate, 37° C., 10 h): 25 µg/mL
MIC E. cloacae (Enterobacter cloacae; 96-well plate, 37° C., 10 h): 25 µg/mL
MIC P. aeruginosa (Pseudomonas aeruginosa; 96-well plate, 37° C., 10 h): 12.5 µg/mL
MIC E. coli BL21 (E. coli BL21; 96-well plate, 37° C., 10 h): 50 µg/mL

PRT1449 (ACAPGHFGADCRLQCQCQNGGTCDRFSGCVCPSGWHGVHCE; listed as Homo sapiens)
MIC against P. vulgaris (Proteus vulgaris; 10 h cultivation at 37° C.): 12.5 µg/mL
MIC against K. pneumonia (Klebsiella pneumonia; 10 h cultivation at 37° C.): 50 µg/mL
MIC against S. marcescens (Serratia marcescens; 10 h cultivation at 37° C.): 50 µg/mL
MIC against P. mirabilis (Proteus mirabilis; 10 h cultivation at 37° C.): 50 µg/mL
MIC against C. diversus (Citrobacter diversus; 10 h cultivation at 37° C.): 50 µg/mL
MIC against A. hydrophila (Aeromonas hydrophila; 10 h cultivation at 37° C.): 25 µg/mL
MIC (E. coli DH5α): 50 µg/mL
MIC against M. catarrhalis (Moraxella catarrhalis; 10 h cultivation at 37° C.): 12.5 µg/mL
MIC against E. cloacae (Enterobacter cloacae; 10 h cultivation at 37° C.): 12.5 µg/mL
MIC against P. aeruginosa (Pseudomonas aeruginosa; 10 h cultivation at 37° C.): 12.5 µg/mL
MIC against E. coli BL21 (E. coli BL21; 10 h cultivation at 37° C.): 25 µg/mL

PRT233 (DSRGCARWCPQDSSCVNATACRCNPGFSSFSEIITTPMETCD; listed as Homo sapiens)
MIC (μg/mL) P. vulgaris (Proteus vulgaris; 10 h cultivation at 37° C.): 25 µg/mL
MIC (μg/mL) K. pneumonia (Klebsiella pneumonia; 10 h cultivation at 37° C.): 25 µg/mL
MIC (μg/mL) S. marcescens (Serratia marcescens; 10 h cultivation at 37° C.): 12.5 µg/mL
MIC (μg/mL) P. mirabilis (Proteus mirabilis; 10 h cultivation at 37° C.): 100 µg/mL
MIC (μg/mL) C. diversus (Citrobacter diversus; 10 h cultivation at 37° C.): 12.5 µg/mL
MIC (μg/mL) A. hydrophila (Aeromonas hydrophila; 10 h cultivation at 37° C.): 25 µg/mL
MIC (E. coli DH5α): 12.5 µg/mL
MIC (μg/mL) M. catarrhalis (Moraxella catarrhalis; 10 h cultivation at 37° C.): 25 µg/mL
MIC (μg/mL) E. cloacae (Enterobacter cloacae; 10 h cultivation at 37° C.): 12.5 µg/mL
MIC (μg/mL) P. aeruginosa (Pseudomonas aeruginosa; 10 h cultivation at 37° C.): 12.5 µg/mL
MIC (μg/mL) E. coli BL21 (E. coli BL21; 10 h cultivation at 37° C.): 25 µg/mL

PRT1384 (STRTCPRDCRGRGRCEDGECICDTGYSGDDC; listed as Homo sapiens)
MIC against P. vulgaris (Proteus vulgaris; 10 h cultivation at 37° C.): 50 µg/mL
MIC against K. pneumonia (Klebsiella pneumonia; 10 h cultivation at 37° C.): 50 µg/mL
MIC against S. marcescens (Serratia marcescens; 10 h cultivation at 37° C.): 25 µg/mL
MIC against P. mirabilis (Proteus mirabilis; 10 h cultivation at 37° C.): 25 µg/mL
MIC against C. diversus (Citrobacter diversus; 10 h cultivation at 37° C.): 25 µg/mL
MIC against A. hydrophila (Aeromonas hydrophila; 10 h cultivation at 37° C.): 25 µg/mL
MIC (E. coli DH5α): 25 µg/mL
MIC against M. catarrhalis (Moraxella catarrhalis; 10 h cultivation at 37° C.): 12.5 µg/mL
MIC against E. cloacae (Enterobacter cloacae; 10 h cultivation at 37° C.): 25 µg/mL
MIC against P. aeruginosa (Pseudomonas aeruginosa; 10 h cultivation at 37° C.): 25 µg/mL
MIC against E. coli BL21 (E. coli BL21; 10 h cultivation at 37° C.): 12.5 µg/mL

PRT847 (CDCSPHGALSIPCNSSGKCQCKVGVIGSICDRCQDGYYGFSKNGCLP; listed as Homo sapiens)
MIC (μg/mL) P. vulgaris (Proteus vulgaris; 10 h cultivation at 37° C.): 12.5 µg/mL
MIC (μg/mL) K. pneumonia (Klebsiella pneumonia; 10 h cultivation at 37° C.): 12.5 µg/mL
MIC (μg/mL) S. marcescens (Serratia marcescens; 10 h cultivation at 37° C.): 12.5 µg/mL
MIC (μg/mL) P. mirabilis (Proteus mirabilis; 10 h cultivation at 37° C.): 12.5 µg/mL
MIC (μg/mL) C. diversus (Citrobacter diversus; 10 h cultivation at 37° C.): 25 µg/mL
MIC (μg/mL) A. hydrophila (Aeromonas hydrophila; 10 h cultivation at 37° C.): 12.5 µg/mL
MIC (E. coli DH5α): 12.5 µg/mL
MIC (μg/mL) M. catarrhalis (Moraxella catarrhalis; 10 h cultivation at 37° C.): 12.5 µg/mL
MIC (μg/mL) E. cloacae (Enterobacter cloacae; 10 h cultivation at 37° C.): 25 µg/mL
MIC (μg/mL) P. aeruginosa (Pseudomonas aeruginosa; 10 h cultivation at 37° C.): 12.5 µg/mL
MIC (μg/mL) E. coli BL21 (E. coli BL21; 10 h cultivation at 37° C.): 25 µg/mL

PRT1096 (QLNVCNSNPCLHGGNCEDIYSSYHCSCPLGWSGKHCE; listed as Homo sapiens)
MIC P. vulgaris (Proteus vulgaris; [1]): 12.5 µg/mL
MIC K. pneumonia (Klebsiella pneumonia; [1]): 50 µg/mL
MIC S. marcescens (Serratia marcescens; [1]): 25 µg/mL
MIC P. mirabilis (Proteus mirabilis; [1]): 12.5 µg/mL
MIC C. diversus (Citrobacter diversus; [1]): 50 µg/mL
MIC A. hydrophila (Aeromonas hydrophila; [1]): 50 µg/mL
MIC (E. coli DH5α): 12.5 µg/mL
MIC M. catarrhalis (Moraxella catarrhalis; [1]): 12.5 µg/mL
MIC E. cloacae (Enterobacter cloacae; [1]): 12.5 µg/mL
MIC P. aeruginosa (Pseudomonas aeruginosa; [1]): 50 µg/mL
MIC E. coli BL21 (E. coli BL21; [1]): 50 µg/mL
